Data on 24 compounds can be found in patent US20240317689A1, “POTASSIUM CHANNEL MODULATOR, COMPOSITION AND APPLICATION” (NEUSHEN THERAPEUTICS (SHANGHAI) CO., LTD, priority 2021, published 2024).

For the experiment, the target named is T1, KCNQ2/3 potassium ion channel (Homo sapiens, UniProt O43525+O43526).
T1 construct: expressed in transfected cells; host or cells: CHO cells (hKCNQ-CHO)
Briefly: KCNQ2/3 potassium ion channel activation assay (whole-cell patch clamp, hKCNQ-CHO cells). Particulars: read-out: Enhancment % (current enhancement multiple); for activation at 0.05 µM: test concentration 0.05 μM; for activation at 3 µM: test concentration 3 μM. It counts as cell-based. How it is done:
Example 64: KCNQ2/3 Potassium Ion Channel Activation Assay
hKCNQ-CHO cells were cultured at 37° C. in a humidified environment of 5% CO2.
• 2.1. Extracellular fluid (mM): NaCl 145, KCl 4, CaCl2 2, MgCl2 1, Glucose 10, HEPES 10. The pH value of the extracellular fluid was adjusted to 7.4 with NaOH, and the osmotic pressure was adjusted to about 295 mOsm. • 2.2. Intracellular fluid (mM (mmol/L)): KOH 31.25, KCl 120, EGTA 10, MgCl2 1.75, CaCl2 5.374, HEPES 10, Na-ATP 4. The pH value of the intracellular fluid was adjusted to 7.4 with HCl, and the osmotic pressure was adjusted to about 285 mOsm. • 2.3. The extracellular fluid should be prepared once a week, and the intracellular fluid should be stored at −20° C. after preparation.
The model positive reference compound Retigabine (RTG) was dissolved with 100% DMSO and configured as a 10 mM working solution. The test compounds were dissolved with 100% DMSO and configured as a 10 mM working solution. The final concentration of DMSO in the test solution should be less than 0.3%.
Whole-cell patch clamp was performed at room temperature. The electrical signals recorded with the EPC 10 USB amplifier (HEKA Elektronik, Germany) were filtered by a 3 kHz low-pass filter, and finally recorded in PatchMaster 2×90.5 software (HEKA Elektronik, Germany). At this step, the quality control standard was that the cell high-resistance sealing was greater than 500 MOhms, and the detection current was greater than 0.4 nA.
The recording electrodes were pulled out and polished with a vertical puller (NARISHIGE PC-10, Japan) using a borosilicate glass capillary (GC150tF-10, Harvard Apparatus Co., UK). At this step, the quality control standard was that the electrode resistance was between 2 MΩ and 5 MΩ.
During the recording process of the whole-cell patch clamp, a continuous perfusion system (BT100-2J, LongerPump, China) was used to continuously perfuse the extracellular fluid. The perfusion system was installed on the stage of an upright microscope (FN-S2N, Nikon, Japan), and the perfusion head was manually positioned under the microscope.
The voltage command for detecting the amplitude of hKCNQ current was as follows: the cell stepped from the clamping potential of −80 mV to −30 mV, and held for 1500 ms; and then the clamping voltage was lowered to −120 my and held for 500 ms; finally, the voltage returned to the clamping potential of −80 mV. The detection voltage command was repeated every 15,000 milliseconds, and the command was continuously executed during the compound test. The quality control standard for compound action stability was the current amplitude under 5 consecutive voltage commands, and the coefficient of variation of the current amplitude was <5%.
Data analysis was performed using PatchMaster 2×90.5 software (HEKA Elektronik, Germany) and Excel 2013 (Microsoft, USA) software. For each cell's patch clamp recording, the amplitude of the hKCNQ channel current (Itest) corresponding to the test compound concentration should be obtained. The enhanced channel current was obtained by subtracting the cell's original channel current (Icontrol) from Itest and dividing by Icontrol to obtain the current enhancement multiple. That is, the current enhancement multiple (Enhancment %)=(Itest −Icontrol)/Icontrol[…].
(In general: In patch-clamp work, channel activity is measured electrically.)

With `COc1ccc2c(c1)CCCN(c1cc(C)c(NC(=O)CC(C)(C)C)c(C)c1)C2` [Compound 001, N-(4-(7-methoxy-1,3,4,5-tetrahydro-2H-benzo[c]azepin-2-yl)-2,6-dimethylphenyl)-3,3-dimethylbutanamide], the activation at 0.05 µM was 50 to 100% and the activation at 3 µM fell in the range of 50 to 100%.
Consider `CCOc1ccc2c(c1)CCCN(c1cc(C)c(NC(=O)CC(C)(C)C)c(C)c1)C2` [Compound 002, N-(4-(7-ethoxy-1,3,4,5-tetrahydro-2H-benzo[c]azepin-2-yl)-2,6-dimethylphenyl)-3,3-dimethylbutanamide], for which the activation at 0.05 µM was less than 50% and the activation at 3 µM fell in the range of 50 to 100%.
As to `Cc1cc(N2CCCc3cc(OC(F)F)ccc3C2)cc(C)c1NC(=O)CC(C)(C)C` [Compound 005, N-(4-(7-(difluoromethoxy)-1,3,4,5-tetrahydro-2H-benzo[c]azepin-2-yl)-2,6-dimethylphenyl)-3,3-dimethylbutanamide], the activation at 0.05 µM is less than 50% and the activation at 3 µM is greater than 100%.
`Cc1cc(N2CCCc3cc(OC(F)(F)F)ccc3C2)cc(C)c1NC(=O)CC(C)(C)C` [Compound 006, N-(2,6-dimethyl-4-(7-(trifluoromethoxy)-1,3,4,5-tetrahydro-2H-benzo[c]azepin-2-yl)phenyl)-3,3-dimethylbutanamide]: the activation at 3 µM is greater than 100%.
Consider `Cc1cc(N2CCCc3cc(OCC(F)(F)F)ccc3C2)cc(C)c1NC(=O)CC(C)(C)C` [Compound 007, N-(2,6-dimethyl-4-(7-(2,2,2-trifluoroethoxy)-1,3,4,5-tetrahydro-2H-benzo[c]azepin-2-yl)phenyl)-3,3-dimethylbutanamide], for which the activation at 3 µM was greater than 100%.
On the same count and under the same terms, the same measure for `Cc1cc(N2CCCc3cc(OC4CC4)ccc3C2)cc(C)c1NC(=O)CC(C)(C)C` [Compound 009, N-(4-(7-cyclopropoxy-1,3,4,5-tetrahydro-2H-benzo[c]azepin-2-yl)-2,6-dimethylphenyl)-3,3-dimethylbutanamide]: greater than 100%.
With `Cc1cc(N2CCCc3cc(OC4CCC4)ccc3C2)cc(C)c1NC(=O)CC(C)(C)C` [Compound 010, N-(4-(7-cyclobutoxy-1,3,4,5-tetrahydro-2H-benzo[c]azepin-2-yl)-2,6-dimethylphenyl)-3,3-dimethylbutanamide], the activation at 0.05 µM was greater than 100% and the activation at 3 µM was greater than 100%.
As for `Cc1cc(N2CCCc3cc(OC4CCCCC4)ccc3C2)cc(C)c1NC(=O)CC(C)(C)C` [Compound 012, N-(4-(7-(cyclohexyloxy)-1,3,4,5-tetrahydro-2H-benzo[c]azepin-2-yl)-2,6-dimethylphenyl)-3,3-dimethylbutanamide], the activation at 3 µM was greater than 100%.
The same measure, in the same setting: the figure for `Cc1cc(N2CCCc3cc(OC4COC4)ccc3C2)cc(C)c1NC(=O)CC(C)(C)C` [Compound 013, N-(2,6-dimethyl-4-(7-(oxetan-3-yloxy)-1,3,4,5-tetrahydro-2H-benzo[c]azepin-2-yl)phenyl)-3,3-dimethylbutanamide] is greater than 100%.
As for `CSc1ccc2c(c1)CCCN(c1cc(C)c(NC(=O)CC(C)(C)C)c(C)c1)C2` [Compound 014, N-(2,6-dimethyl-4-(7-(methylthio)-1,3,4,5-tetrahydro-2H-benzo[c]azepin-2-yl)phenyl)-3,3-dimethylbutanamide], the activation at 0.05 µM was less than 50% and the activation at 3 µM was 50 to 100%.
`Cc1cc(N2CCCc3cc(S(C)(=O)=O)ccc3C2)cc(C)c1NC(=O)CC(C)(C)C` [Compound 015, N-(2,6-dimethyl-4-(7-(methylsulfonyl)-1,3,4,5-tetrahydro-2H-benzo[c]azepin-2-yl)phenyl)-3,3-dimethylbutanamide]: the activation at 3 µM is greater than 100%.
Consider `Cc1cc(N2CCC(C)(C)c3ccccc3C2)cc(C)c1NC(=O)CC(C)(C)C` [Compound 017, N-(4-(5,5-dimethyl-1,3,4,5-tetrahydro-2H-benzo[c]azepin-2-yl)-2,6-dimethylphenyl)-3,3-dimethylbutanamide], for which the activation at 0.05 µM was less than 50% and the activation at 3 µM is 50 to 100%.
As for `Cc1cc(N2CCC3(CC3)c3cc(F)ccc3C2)cc(C)c1NC(=O)CC(C)(C)C` [Compound 022, N-(4-(7-fluoro-3,4-dihydrospiro[benzo[c]azepine-5,1′-cyclopropan]-2(1H)-yl)-2,6-dimethylphenyl)-3,3-dimethylbutanamide], the activation at 3 µM was 50 to 100%.
In the case of `Cc1cc(N2CCNc3cc(F)ccc3C2)cc(C)c1NC(=O)CC(C)(C)C` [Compound 023, N-(4-(8-fluoro-1,2,3,5-tetrahydro-4H-benzo[e][1,4]diazepin-4-yl)-2,6-dimethylphenyl)-3,3-dimethylbutanamide], the activation at 3 µM is greater than 100%.
The same measure, in the same setting: the same measure for `Cc1cc(N2CCN(C)c3cc(F)ccc3C2)cc(C)c1NC(=O)CC(C)(C)C` [Compound 024, N-(4-(8-fluoro-1-methyl-1,2,3,5-tetrahydro-4H-benzo[e][1,4]diazepin-4-yl)-2,6-dimethylphenyl)-3,3-dimethylbutanamide]: 50 to 100%; for `Cc1cc(N2CCSc3cc(F)ccc3C2)cc(C)c1NC(=O)CC(C)(C)C` [Compound 025, N-(4-(8-fluoro-2,3-dihydrobenzo[f][1,4]thiazepin-4(5H)-yl)-2,6-dimethylphenyl)-3,3-dimethylbutanamide]: greater than 100%.
Take `Cc1cc(N2CCS(=O)(=O)c3cc(F)ccc3C2)cc(C)c1NC(=O)CC(C)(C)C` [Compound 026, N-(4-(8-fluoro-1,1-dioxido-2,3-dihydrobenzo[f][1,4]thiazepin-4(5H)-yl)-2,6-dimethylphenyl)-3,3-dimethylbutanamide]: the activation at 3 µM is greater than 100%.
Regarding `Cc1cc(N2CC=Cc3cc(F)ccc3C2)cc(C)c1NC(=O)CC(C)(C)C` [Compound 027, N-(4-(7-fluoro-1,3-dihydro-2H-benzo[c]azepin-2-yl)-2,6-dimethylphenyl)-3,3-dimethylbutanamide], the activation at 0.05 µM was less than 50% and the activation at 3 µM is greater than 100%.
`CC1=CCN(c2cc(C)c(NC(=O)CC(C)(C)C)c(C)c2)Cc2ccc(F)cc21` [Compound 028, N-(4-(7-fluoro-5-methyl-1,3-dihydro-2H-benzo[c]azepin-2-yl)-2,6-dimethylphenyl)-3,3-dimethylbutanamide]: the activation at 0.05 µM is less than 50% and the activation at 3 µM lay in the range of 50 to 100%.
Consider `Cc1c(NC(=O)CC(C)(C)C)ccc(N2CCCc3cc(F)ccc3C2)c1F` [Compound 029, N-(3-fluoro-4-(7-fluoro-1,3,4,5-tetrahydro-2H-benzo[c]azepin-2-yl)-2-methylphenyl)-3,3-dimethylbutanamide], for which the activation at 3 µM fell in the range of 50 to 100%.
On the same count and under the same terms, the same measure for `Cc1cc(N2CCCc3cc(F)ccc3C2)c(C)c(C)c1NC(=O)CC(C)(C)C` [Compound 030, N-(4-(7-fluoro-1,3,4,5-tetrahydro-2H-benzo[c]azepin-2-yl)-2,3,6-trimethylphenyl)-3,3-dimethylbutanamide]: 50 to 100%; for `Cc1cc(N2CCCc3cc(F)ccc3C2)c(Cl)c(C)c1NC(=O)CC(C)(C)C` [Compound 031, N-(3-chloro-4-(7-fluoro-1,3,4,5-tetrahydro-2H-benzo[c]azepin-2-yl)-2,6-dimethylphenyl)-3,3-dimethylbutanamide]: greater than 100%; for `Cc1cc(N2CCCc3cc(OC(C)C(F)(F)F)c(F)cc3C2)cc(C)c1NC(=O)CC(C)(C)C` (centres unmarked) [Compound 034, N-(4-(8-fluoro-7-((1,1,1-trifluoropropan-2-yl)oxy)-1,3,4,5-tetrahydro-2H-benzo[c]azepin-2-yl)-2,6-dimethylphenyl)-3,3-dimethylbutanamide]: greater than 100%.
On the same count and under the same terms, the figure for `Cc1cc(N2CCCc3cc(O[C@@H](C)C(F)(F)F)c(F)cc3C2)cc(C)c1NC(=O)CC(C)(C)C` [Compound 036, (S)—N-(4-(8-fluoro-7-((1,1,1-trifluoropropan-2-yl)oxy)-1,3,4,5-tetrahydro-2H-benzo[c]azepin-2-yl)-2,6-dimethylphenyl)-3,3-dimethylbutanamide] is greater than 100%.
